# Laboratory results: US12377153B2, “Poly(beta-thioester) polymers and polymeric nanoparticles” (MASSACHUSETTS INSTITUTE OF TECHNOLOGY, priority 2019, dated 2025)
# Test system: dendritic cells in the draining lymph nodes
# Experiment: Dendritic cell phenotype in draining lymph nodes after subcutaneous vaccination
# Format: in vivo, C57BL/6J mice
# Conditions: antigen alone as compared to vehicle-treated animals
# Description: The activity of the polymeric adjuvant B18 was assessed in C57BL/6J mice. Vaccines were prepared by admixing a model peptide antigen (SIINFEKL) with B18 nanoparticles and injected subcutaneously into mice. Following three injections placed three days apart, animals were sacrificed and dendritic cell phenotype in the draining lymph nodes were analyzed using flow cytometry.
sequence,measurement,value
SIINFEKL,dendritic cell activation,no appreciable dendritic cell activation
